In the experiment the test system is human bronchial epithelial cells, CFTR corrector, plate reader. Nature of the experiment: CFTR ΔF508 corrector activity in bronchial cells, dose response, human bronchial epithelial cells, plate reader, cherry-pick, two tests (AID 743267).
[1] abbreviates: measured here: test 2 replicate run.
[2] abbreviates: measured here: test 1 replicate run.

One may read the AC50 as the concentration giving half of the maximal activity seen. A lower AC50 goes with greater potency. In the case of `CC1(C(=O)NCc2ccco2)Cc2c(-c3ccc4c(c3)OCO4)ccnc2O1` (configuration not stated), the AC50 under setting [1] came to 1.88 µM.
On the same count and under the same terms, the result for `O=c1c2ccccc2oc2cc(-c3ccc4[nH]ccc4c3)ccc12` reads 1.94 µM; that for `CC(OC(=O)CCCC(=O)Nc1ccc(F)cc1)C(=O)c1ccccc1` (configuration not stated), above 50 µM.
The same measure, in the same setting: then `CC(=O)Nc1ccc(-c2csc(NC(=O)CN3C(=O)NC4(CCCC4)C3=O)n2)cc1`, with above 50 µM; and `Clc1ccc(CSc2nncn2-c2ccc3c(c2)OCCO3)cc1`, with 9.62 µM.
Still for that read-out and setting: the result for `COc1ccc2c(c1)sc(N)[n+]2Cc1cc(C)cc2cccnc12` reads 1.04 µM; that for `CC(=O)c1ccc(Nc2cc(C)nc3c(C)cc(C)cc23)cc1`, 3.11 µM.
The compound `C=C1C(=O)O[C@@H]2C[C@@H](C)[C@@H]3C=CC(=O)[C@@]3(C)[C@@H](O)[C@H]12` registered an AC50 under setting [1] of 0.989 µM.
Same read-out and setting: then `CCN(CC)c1ccc(/C=N/NC(=O)c2cnccn2)c(O)c1`, with 2.2 µM; and `O=[N+]([O-])c1ccc(N2CCOCC2)c2c1no[n+]2[O-]`, with 2.76 µM.
Same read-out and setting: then `Cc1ccc(C(=O)N/N=C/c2cc(Br)ccc2O)cn1`, with 0.672 µM.
On to `CCN(CC)c1ccc(/C=N/NC(=O)c2ccco2)c(O)c1`, for which the concentration at half-maximal activity (AC50) under setting [1] amounted to 2.3 µM.
On the same count and under the same terms, the result for `COc1cc(/C=C2/SC(=Nc3ccc(O)cc3)NC2=O)cc(OC)c1O` reads 8.92 µM; that for `O=C(c1cccc(S(=O)(=O)N2CCOCC2)c1)N1CCCC(C(F)(F)F)C1` (configuration not stated), 39.2 µM.
The same measure, in the same setting: the result for `N#CCC(=O)N/N=C/c1cn(Cc2cccc3ccccc23)c2ccccc12` reads 2.86 µM.
The same measure, in the same setting: then `c1ccc(CCN(Cc2ccccc2)Cc2nc(C3CC3)no2)cc1`, with 24.9 µM; and `Cc1ccccc1-c1nc(CS(=O)(=O)CC(=O)NCc2ccccc2)c(C)o1`, with above 50 µM.
With `O=C(CN1C(=O)NC2(CCCCCCC2)C1=O)Nc1ccc(Br)cc1`, under setting [1], the concentration at half-maximal activity (AC50) was 1.13 µM.
In turn, `Cc1ccc(-c2ccc3c(c2)O[C@@H](CN(C)Cc2ccccn2)[C@H](C)CN([C@H](C)CO)S3(=O)=O)cc1` came in with an AC50 under setting [2] of 13.6 µM.
Consider `COC(=O)c1[nH]c2c(c1C)C(=O)CC(c1cccc(OC)c1)C2` (configuration not stated), for which the AC50 under setting [1] is 0.965 µM.
Same read-out and setting: then `CCC1(C)OC(c2ccccc2)=C/C(=C/C=C2C(=O)NC(=O)NC2=O)O1` (configuration not stated), with 38.7 µM; and `N#Cc1ccc(-c2cccs2)nc1SCc1cccnc1`, with 0.519 µM.
For the compound `CN1C(=O)c2cc(NC(=O)c3ccc(Cl)cc3)ccc2OC[C@@H]2O[C@H](CC(=O)NCc3cccc(F)c3)CC[C@H]21`, the concentration at half-maximal activity (AC50) under setting [2] turned out to be 4.62 µM. In other words, the single-digit micromolar range.
Still for that read-out and setting: the result for `C[C@@H]1CN([C@H](C)CO)S(=O)(=O)c2ccc(C#CC3CC3)cc2O[C@H]1CN(C)Cc1ccccn1` reads 11.8 µM.
`CN(C)CCNC(=O)c1ccc(Cl)c2cc3ccccc3nc12` had an AC50 under setting [1] of 5.35 µM. In other words, the single-digit micromolar range.
On the same count and under the same terms, the result for `NS(=O)(=O)c1cc(Cl)c(Cl)c(S(N)(=O)=O)c1` reads 0.0468 µM.
On the same count and under the same terms, then `NS(=O)(=O)c1ccc(CCNc2nn3c(-c4cccc(OC(F)(F)F)c4)cnc3s2)cc1`, with 1.99 µM; and `O=S1(=O)CCN(C(CO)c2ccccc2)CC1` (configuration not stated), with 43.3 µM; and `COc1ccc(CNCC(=O)Nc2ccccc2-n2cccc2)cc1`, with 6.21 µM.
Still for that read-out and setting: then `COc1ccccc1N1CC(C(=O)Nc2ccc(S(=O)(=O)N3CCCC3)cc2)CC1=O` (configuration not stated), with 10.6 µM; and `CCN1CCN(c2cc(C)c3cc(NC(=O)c4ccc(OC)c(OC)c4)ccc3n2)CC1`, with 1.61 µM.
`CCN1CCCC(OC(=O)c2cc(-c3ccccc3Cl)nc3ccccc23)C1` (configuration not stated) displayed an AC50 under setting [1] of 43.9 µM. This AC50 lies about 27-fold higher than the previous one.
Compound `Cc1cccc(NC(=S)N/N=C/c2cccc(O)c2)c1C` had a concentration at half-maximal activity (AC50) under setting [1] of 3.86 µM.
On the same count and under the same terms, the result for `Cc1nn(S(=O)(=O)c2ccc(Cl)cc2)c(C)c1Sc1ccc([N+](=O)[O-])cc1` reads above 32 µM; that for `O=C(NCCOc1ccccc1F)c1cc([N+](=O)[O-])ccc1N1CCOCC1`, 5.95 µM.
On the same count and under the same terms, then `CCN1/C(=C\c2ccc3cc(C)ccc3[n+]2CC)Sc2cc(C)c(C)cc21`, with 9.9 µM.
`Cc1ccc(-c2ccc3c(c2)O[C@H](CN(C)Cc2ccccn2)[C@@H](C)CN([C@H](C)CO)S3(=O)=O)cc1` yielded an AC50 under setting [2] of 5.08 µM.
`CCOC(=O)N1CCN(C(=O)C2CCC(=O)N(CCCN3CCCC3=O)C2)CC1` (configuration not stated): under setting [1], the AC50 stood at 10.5 µM.
Same read-out and setting: then `Cc1cnc(NC(=O)c2ccc3c(c2)OCCO3)s1`, with 4.71 µM; and `CC(=O)NC(c1ccc(Cl)cc1Cl)c1ccc2cccnc2c1O` (configuration not stated), with 2.63 µM; and `CO[C@@]12[C@@H]3N[C@@H]3CN1C1=C(C(=O)C(N)=C(C)C1=O)[C@@H]2COC(N)=O`, with 11.5 µM.
In turn, `Cc1ccc(-c2csc3ncn(CC#N)c(=O)c23)cc1C` showed an AC50 under setting [1] of 35.7 µM.
Still for that read-out and setting: then `COc1ccc(OC)c(C(=O)Cn2nnc(-c3ccc(N4CCOCC4)cc3)n2)c1`, with 31.1 µM.
On the same count and under the same terms, then `COc1cc(NC(=O)COC(=O)c2n[nH]c3ccccc23)c(C)cc1[N+](=O)[O-]`, with 36.6 µM; and `CC1CCN(C(=O)c2ccc(S(=O)(=O)N3CCCC3)cc2)CC1`, with above 50 µM.
On the same count and under the same terms, then `NC(=S)NN=Cc1nccc2c(N)cccc12`, with 3.21 µM.
Compound `Cc1ccc(C)c(C2NC(=O)c3ccccc3N2)c1` (configuration not stated) had an AC50 under setting [1] of 2.91 µM.
On the same count and under the same terms, the result for `Cn1nccc1C(=O)N/N=C/c1c(O)ccc2ccccc12` reads 19.2 µM.
The same measure, in the same setting: then `COC(=O)c1cc(C(=O)N2CCN(c3cccc(Cl)c3)CC2)cc([N+](=O)[O-])c1`, with 0.383 µM.
The same measure, in the same setting: then `COc1cc(OC)c(-c2c3cc(O)c(=O)cc-3oc3cc(O)c(O)cc23)cc1OC`, with 8.08 µM.
Compound `CC(=O)O[C@H]1C(=O)[C@]2(C)[C@H]([C@H](OC(=O)c3ccccc3)[C@]3(O)C[C@H](OC(=O)[C@H](O)[C@@H](NC(=O)c4ccccc4)c4ccccc4)C(C)=C1C3(C)C)[C@]1(OC(C)=O)CO[C@@H]1C[C@@H]2O` came in with an AC50 under setting [1] of 0.339 µM. This AC50 is about 24-fold lower than that of the compound before.
Compound `CCN(C(=O)CSc1nnc(C)n1-c1ccc(C)cc1)c1c(N)n(Cc2ccccc2)c(=O)[nH]c1=O` displayed an AC50 under setting [1] above 50 µM.
With `Cc1cc(C(=O)NNC(=O)c2ccc(Cl)c(S(N)(=O)=O)c2)c(C)o1`, the concentration at half-maximal activity (AC50) under setting [1] worked out at 6.93 µM.
In the case of `CC1=NCCc2c1[nH]c1cc(O)ccc21`, under setting [1], the AC50 came out at 41.4 µM. This AC50 lies about 6-fold higher than the previous one.
On the same count and under the same terms, the result for `COc1ccc(OC)c(Nc2cc(C)nc3ccc(C)cc23)c1` reads 10.7 µM; that for `O=C1c2ccccc2C(=O)N1Cc1cnc(N2CCN(c3ccccc3)CC2)s1`, 44.1 µM; that for `COc1cccc2c1C(=O)c1c(O)c3c(c(O)c1C2=O)C[C@](O)(C(C)=O)C[C@H]3O[C@@H]1C[C@@H](N)[C@@H](O)[C@@H](C)O1`, 7.44 µM.
On the same count and under the same terms, then `CNc1ccc2c3c(cccc13)C(=O)N(C)C2=O`, with 7.59 µM.
Under setting [1], `COc1ccc(-c2cnc3c(NC=O)cc(-c4ccccc4)cn23)cc1OC` returned an AC50 of 0.793 µM.
The same measure, in the same setting: the result for `COc1ccc(S(=O)(=O)Nc2cc3c(cc2C(C)=O)OCO3)cc1` reads 13.9 µM.
Still for that read-out and setting: the result for `N#Cc1c(-c2ccc(F)cc2)c(-c2ccc(F)cc2)nn(CCO)c1=O` reads 2.57 µM; that for `CCc1ccccc1N(C)S(=O)(=O)c1ccc(-c2cc(C)no2)s1`, 6.87 µM.
The same measure, in the same setting: the result for `Cc1nc(/N=C(\N)NC(=O)NC2CCCCC2)nc2ccccc12` reads 2.76 µM.
In turn, `O=C(CSC1=NCCN1)Nc1cccc([N+](=O)[O-])c1` displayed an AC50 under setting [1] of 14.1 µM.
`CCOC(=O)C1CCCN(c2ccc([N+](=O)[O-])c3nonc23)C1` (configuration not stated): the AC50 under setting [1] is 20.7 µM.
Regarding `COc1ccc(/C=N/NC(=O)c2cccnc2)cc1CSc1ccccn1`, the AC50 under setting [1] worked out at 28.2 µM. This AC50 and that of the compound before are within 1.5-fold of each other.
Under setting [1], `CC1=Nc2cc(C(=O)NCC3CCCO3)ccc2Sc2ccc(Br)cc21` (configuration not stated) came in with an AC50 of 9.45 µM.
The same measure, in the same setting: then `CC(=O)Nc1ccc(NC(=O)COc2cccc3c2OC(C)(C)C3)cc1`, with above 50 µM; and `Cc1cc(NC(=O)CN2C(=O)NC3(CCCCCC3)C2=O)ccc1Br`, with 8.4 µM; and `Cc1cc(C(=O)N/N=C/c2ccc3c(c2)OCO3)c2ccccc2n1`, with 3.76 µM.
On the same count and under the same terms, then `CC(C)CN(CCCNC(=O)CN1C(=O)CSc2ccc(S(=O)(=O)N3CCOCC3)cc21)CC(C)C`, with above 50 µM; and `C=CCCC(=O)Nc1nc(C)c(-c2csc(Nc3cc(OC)ccc3OC)n2)s1`, with 10.3 µM; and `CCN(C(=O)CSc1nc2ccccc2c(=O)n1-c1ccccc1F)C1CCS(=O)(=O)C1` (configuration not stated), with 0.253 µM.
The same measure, in the same setting: the result for `C=CCn1c(SCC(=O)N(C)C2CCS(=O)(=O)C2)nc2ccccc2c1=O` (configuration not stated) reads 26.7 µM; that for `Cc1ccc(S(=O)(=O)N(Cc2cc3ccccc3[nH]c2=O)c2cccc(C)c2)cc1`, 8.17 µM; that for `COCCOC(=O)c1[nH]c2c(c1C)C(=O)CC(c1cccs1)C2` (configuration not stated), 4.16 µM.
Take `COc1cccc2c1C(=O)c1c(O)c3c(c(O)c1C2=O)C[C@@](O)(C(C)=O)C[C@@H]3O[C@H]1C[C@H](N)[C@H](O)[C@H](C)O1`: under setting [1], the concentration at half-maximal activity (AC50) was 7.44 µM.
Still for that read-out and setting: then `CC(=O)O[C@H]1C(=O)[C@@]2(C)[C@H]([C@H](OC(=O)c3ccccc3)[C@]3(O)C[C@H](OC(=O)[C@H](O)C(NC(=O)c4ccccc4)c4ccccc4)C(C)=C1C3(C)C)[C@]1(OC(C)=O)CO[C@@H]1C[C@@H]2O` (some centres not stated), with 3.59 µM.
Same read-out and setting: then `COc1cc(/C=C2\SC(=S)N(NC(=O)c3ccncc3)C2=O)ccc1O`, with 13.2 µM.
The same measure, in the same setting: the result for `COc1cc(C(=O)c2cocc2C(=O)c2ccc3c(c2)OCO3)cc(OC)c1OC` reads 0.451 µM; that for `COc1ccc2[nH]c(C(=O)N/N=C/c3ccc(OC)c(O)c3)cc2c1`, 0.85 µM; that for `Cc1cc(Nc2ccc(Br)cc2)nc2ccccc12`, 21.1 µM.
Compound `Cc1ccc(S(=O)(=O)N2CCCCC2CCNC(=O)C(=O)NCc2ccccc2)cc1` (configuration not stated) yielded an AC50 under setting [1] of 3.29 µM. This AC50 is about 6.4-fold lower than that of the compound before.
Same read-out and setting: the result for `COc1cccc(/C=N/Nc2ncnc(Cl)c2N)c1O` reads 12.8 µM; that for `COc1ccccc1Nc1c2c(nc3ccccc13)CCC2`, 6.89 µM; that for `COCCNc1nc(Nc2ccc(C)cc2C)c2sccc2n1`, 2.34 µM.
On the same count and under the same terms, the result for `Cc1cccc(C(=O)N(Cc2ccco2)c2c(N)n(Cc3ccccc3)c(=O)[nH]c2=O)c1` reads above 50 µM; that for `Cc1ccc(/C=N/NC(=O)c2ccc3ccccc3c2)s1`, 2.05 µM; that for `COc1cc(OC)cc(C(=O)c2c(C)c(C#N)c3ccccn23)c1`, 1.8 µM.
For the compound `COc1cc(OC)c2c(-c3cccc(-c4cccc(N)c4)c3)cc(=O)oc2c1`, the AC50 under setting [1] turned out to be 3.43 µM.
Same read-out and setting: the result for `COCCCN=C1NN=C(c2cc(C)n(Cc3ccccc3Cl)c2C)CS1` reads 3.3 µM; that for `CCOC1=C/C(=C/c2c(N)n3nc(S(=O)(=O)CC)sc3nc2=O)C=CC1=O`, 24.9 µM.

For the origin of these results see PubChem BioAssay AID743267 (Broad Institute, 2014).
